Results reported in paper PMC10239507, “Development of allosteric and selective CDK2 inhibitors for contraception with negative cooperativity to cyclin binding” (Nature Communications, 2023).

Columns and labels:
Assay in all cases: biochemical
[1] = target: T1, 371 kinases (kinase named in each endpoint) (Homo sapiens, UniProt Q9Y463); settings: DYRK1B
T1 construct: purchased Reaction Biology

[2] = target: T2, 371 kinases (kinase named in each endpoint) (Homo sapiens, UniProt Q02763); settings: TIE2/TEK
T2 construct: purchased Reaction Biology

[3] = target: T3, 371 kinases (kinase named in each endpoint) (Homo sapiens, UniProt P08922); settings: ROS/ROS1
T3 construct: purchased Reaction Biology

[4] = target: T4, 371 kinases (kinase named in each endpoint) (Homo sapiens, UniProt P08631); settings: HCK
T4 construct: purchased Reaction Biology

[5] = target: T5, 371 kinases (kinase named in each endpoint) (Homo sapiens, UniProt Q00537); settings: CDK17/CYCLIN Y (PCTK2)
T5 construct: purchased Reaction Biology

[6] = target: T6, 371 kinases (kinase named in each endpoint) (Homo sapiens, UniProt Q13470); settings: TNK1
T6 construct: purchased Reaction Biology

[7] = target: T7, 371 kinases (kinase named in each endpoint) (Homo sapiens, UniProt Q8TD19); settings: NEK9
T7 construct: purchased Reaction Biology

[8] = target: T8, 371 kinases (kinase named in each endpoint) (Homo sapiens, UniProt O15530); settings: PDK1/PDPK1
T8 construct: purchased Reaction Biology

[9] = target: T9, 371 kinases (kinase named in each endpoint) (Homo sapiens, UniProt Q8NEV4); settings: MYO3A
T9 construct: purchased Reaction Biology

[10] = target: T10, 371 kinases (kinase named in each endpoint) (Homo sapiens, UniProt Q08345); settings: DDR1
T10 construct: purchased Reaction Biology

[11] = target: T11, 371 kinases (kinase named in each endpoint) (Homo sapiens, UniProt P49760); settings: CLK2
T11 construct: purchased Reaction Biology

[12] = target: T12, 371 kinases (kinase named in each endpoint) (Homo sapiens, UniProt P25098); settings: GRK2
T12 construct: purchased Reaction Biology

[13] = target: T13, 371 kinases (kinase named in each endpoint) (Homo sapiens, UniProt Q15831); settings: LKB1
T13 construct: purchased Reaction Biology

[14] = target: T14, 371 kinases (kinase named in each endpoint) (Homo sapiens, UniProt O75716); settings: STK16
T14 construct: purchased Reaction Biology

[15] = target: T15, 371 kinases (kinase named in each endpoint) (Homo sapiens, UniProt Q15418); settings: RSK1
T15 construct: purchased Reaction Biology

[16] = target: T16, 371 kinases (kinase named in each endpoint) (Homo sapiens, UniProt P42679); settings: CTK/MATK
T16 construct: purchased Reaction Biology

[17] = target: T17, 371 kinases (kinase named in each endpoint) (Homo sapiens, UniProt P21802); settings: FGFR2
T17 construct: purchased Reaction Biology

[18] = target: T18, 371 kinases (kinase named in each endpoint) (Homo sapiens, UniProt Q56UN5); settings: YSK4/MAP3K19
T18 construct: purchased Reaction Biology

[19] = target: T19, 371 kinases (kinase named in each endpoint) (Homo sapiens, UniProt P22455); settings: FGFR4
T19 construct: purchased Reaction Biology

[20] = target: T20, 371 kinases (kinase named in each endpoint) (Homo sapiens, UniProt P06241); settings: FYN
T20 construct: purchased Reaction Biology

[21] = target: T21, 371 kinases (kinase named in each endpoint) (Homo sapiens, UniProt P36897); settings: ALK5/TGFBR1
T21 construct: purchased Reaction Biology

[22] = target: T22, 371 kinases (kinase named in each endpoint) (Homo sapiens, UniProt Q16816); settings: PHKG1
T22 construct: purchased Reaction Biology

[23] = target: T23, 371 kinases (kinase named in each endpoint) (Homo sapiens, UniProt Q9H1R3); settings: MLCK2/MYLK2
T23 construct: purchased Reaction Biology

[24] = target: T24, 371 kinases (kinase named in each endpoint) (Homo sapiens, UniProt O43187); settings: IRAK2
T24 construct: purchased Reaction Biology

[25] = target: T25, 371 kinases (kinase named in each endpoint) (Homo sapiens, UniProt P22612); settings: PKACG
T25 construct: purchased Reaction Biology

[26] = target: T26, 371 kinases (kinase named in each endpoint) (Homo sapiens, UniProt P07333); settings: FMS
T26 construct: purchased Reaction Biology

[27] = target: T27, 371 kinases (kinase named in each endpoint) (Homo sapiens, UniProt Q00535)
T27 construct: purchased Reaction Biology

[28] = target: T28, 371 kinases (kinase named in each endpoint) (Homo sapiens, UniProt Q6VAB6); settings: KSR2
T28 construct: purchased Reaction Biology

[29] = target: T29, 371 kinases (kinase named in each endpoint) (Homo sapiens, UniProt P12931); settings: C-SRC
T29 construct: purchased Reaction Biology

[30] = target: T30, 371 kinases (kinase named in each endpoint) (Homo sapiens, UniProt O15111); settings: IKKA/CHUK
T30 construct: purchased Reaction Biology

[31] = target: T31, 371 kinases (kinase named in each endpoint) (Homo sapiens, UniProt P35916); settings: FLT4/VEGFR3
T31 construct: purchased Reaction Biology

[32] = target: T32, 371 kinases (kinase named in each endpoint) (Homo sapiens, UniProt Q8IVT5); settings: KSR1
T32 construct: purchased Reaction Biology

[33] = target: T33, 371 kinases (kinase named in each endpoint) (Homo sapiens, UniProt P51813); settings: BMX/ETK
T33 construct: purchased Reaction Biology

[34] = target: T34, 371 kinases (kinase named in each endpoint) (Homo sapiens, UniProt Q9H422); settings: HIPK3
T34 construct: purchased Reaction Biology

[35] = target: T35, 371 kinases (kinase named in each endpoint) (Homo sapiens, UniProt O75914); settings: PAK3
T35 construct: purchased Reaction Biology

[36] = target: T36, 371 kinases (kinase named in each endpoint) (Homo sapiens, UniProt P29323); settings: EPHB2
T36 construct: purchased Reaction Biology

[37] = target: T37, 371 kinases (kinase named in each endpoint) (Homo sapiens, UniProt Q8IY84); settings: NIM1
T37 construct: purchased Reaction Biology

T27 sequence (Q00535 whole entry): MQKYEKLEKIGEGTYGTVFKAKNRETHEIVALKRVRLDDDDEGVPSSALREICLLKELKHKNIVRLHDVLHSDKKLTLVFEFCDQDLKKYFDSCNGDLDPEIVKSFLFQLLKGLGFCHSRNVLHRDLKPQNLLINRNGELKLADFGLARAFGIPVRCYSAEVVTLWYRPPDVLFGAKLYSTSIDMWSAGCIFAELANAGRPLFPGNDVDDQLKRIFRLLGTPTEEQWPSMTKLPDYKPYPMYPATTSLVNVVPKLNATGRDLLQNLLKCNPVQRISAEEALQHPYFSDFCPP
T10 sequence (Q08345 19-913): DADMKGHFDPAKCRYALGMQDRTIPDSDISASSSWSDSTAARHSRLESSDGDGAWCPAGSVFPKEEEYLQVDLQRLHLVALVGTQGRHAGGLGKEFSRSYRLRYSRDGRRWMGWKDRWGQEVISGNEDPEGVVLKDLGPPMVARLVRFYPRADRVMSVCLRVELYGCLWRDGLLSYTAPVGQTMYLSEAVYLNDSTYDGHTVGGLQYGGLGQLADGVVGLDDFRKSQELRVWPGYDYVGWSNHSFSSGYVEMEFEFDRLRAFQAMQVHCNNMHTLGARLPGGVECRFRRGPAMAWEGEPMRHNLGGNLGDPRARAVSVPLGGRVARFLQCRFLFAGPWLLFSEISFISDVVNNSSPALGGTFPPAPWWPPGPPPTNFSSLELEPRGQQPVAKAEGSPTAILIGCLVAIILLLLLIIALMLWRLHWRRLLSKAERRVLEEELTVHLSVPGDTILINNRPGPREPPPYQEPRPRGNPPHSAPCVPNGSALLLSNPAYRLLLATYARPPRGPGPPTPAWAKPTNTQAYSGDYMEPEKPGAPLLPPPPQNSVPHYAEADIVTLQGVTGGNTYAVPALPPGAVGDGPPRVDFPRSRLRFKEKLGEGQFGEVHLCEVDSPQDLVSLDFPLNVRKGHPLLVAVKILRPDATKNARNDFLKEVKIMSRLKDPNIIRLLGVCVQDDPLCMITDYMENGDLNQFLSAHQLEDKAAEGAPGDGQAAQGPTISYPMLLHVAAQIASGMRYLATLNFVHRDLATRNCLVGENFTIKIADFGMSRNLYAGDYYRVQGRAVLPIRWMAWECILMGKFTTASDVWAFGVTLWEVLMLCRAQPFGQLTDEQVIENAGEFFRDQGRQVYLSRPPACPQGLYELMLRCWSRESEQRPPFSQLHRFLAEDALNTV
T3 sequence (P08922 28-2347): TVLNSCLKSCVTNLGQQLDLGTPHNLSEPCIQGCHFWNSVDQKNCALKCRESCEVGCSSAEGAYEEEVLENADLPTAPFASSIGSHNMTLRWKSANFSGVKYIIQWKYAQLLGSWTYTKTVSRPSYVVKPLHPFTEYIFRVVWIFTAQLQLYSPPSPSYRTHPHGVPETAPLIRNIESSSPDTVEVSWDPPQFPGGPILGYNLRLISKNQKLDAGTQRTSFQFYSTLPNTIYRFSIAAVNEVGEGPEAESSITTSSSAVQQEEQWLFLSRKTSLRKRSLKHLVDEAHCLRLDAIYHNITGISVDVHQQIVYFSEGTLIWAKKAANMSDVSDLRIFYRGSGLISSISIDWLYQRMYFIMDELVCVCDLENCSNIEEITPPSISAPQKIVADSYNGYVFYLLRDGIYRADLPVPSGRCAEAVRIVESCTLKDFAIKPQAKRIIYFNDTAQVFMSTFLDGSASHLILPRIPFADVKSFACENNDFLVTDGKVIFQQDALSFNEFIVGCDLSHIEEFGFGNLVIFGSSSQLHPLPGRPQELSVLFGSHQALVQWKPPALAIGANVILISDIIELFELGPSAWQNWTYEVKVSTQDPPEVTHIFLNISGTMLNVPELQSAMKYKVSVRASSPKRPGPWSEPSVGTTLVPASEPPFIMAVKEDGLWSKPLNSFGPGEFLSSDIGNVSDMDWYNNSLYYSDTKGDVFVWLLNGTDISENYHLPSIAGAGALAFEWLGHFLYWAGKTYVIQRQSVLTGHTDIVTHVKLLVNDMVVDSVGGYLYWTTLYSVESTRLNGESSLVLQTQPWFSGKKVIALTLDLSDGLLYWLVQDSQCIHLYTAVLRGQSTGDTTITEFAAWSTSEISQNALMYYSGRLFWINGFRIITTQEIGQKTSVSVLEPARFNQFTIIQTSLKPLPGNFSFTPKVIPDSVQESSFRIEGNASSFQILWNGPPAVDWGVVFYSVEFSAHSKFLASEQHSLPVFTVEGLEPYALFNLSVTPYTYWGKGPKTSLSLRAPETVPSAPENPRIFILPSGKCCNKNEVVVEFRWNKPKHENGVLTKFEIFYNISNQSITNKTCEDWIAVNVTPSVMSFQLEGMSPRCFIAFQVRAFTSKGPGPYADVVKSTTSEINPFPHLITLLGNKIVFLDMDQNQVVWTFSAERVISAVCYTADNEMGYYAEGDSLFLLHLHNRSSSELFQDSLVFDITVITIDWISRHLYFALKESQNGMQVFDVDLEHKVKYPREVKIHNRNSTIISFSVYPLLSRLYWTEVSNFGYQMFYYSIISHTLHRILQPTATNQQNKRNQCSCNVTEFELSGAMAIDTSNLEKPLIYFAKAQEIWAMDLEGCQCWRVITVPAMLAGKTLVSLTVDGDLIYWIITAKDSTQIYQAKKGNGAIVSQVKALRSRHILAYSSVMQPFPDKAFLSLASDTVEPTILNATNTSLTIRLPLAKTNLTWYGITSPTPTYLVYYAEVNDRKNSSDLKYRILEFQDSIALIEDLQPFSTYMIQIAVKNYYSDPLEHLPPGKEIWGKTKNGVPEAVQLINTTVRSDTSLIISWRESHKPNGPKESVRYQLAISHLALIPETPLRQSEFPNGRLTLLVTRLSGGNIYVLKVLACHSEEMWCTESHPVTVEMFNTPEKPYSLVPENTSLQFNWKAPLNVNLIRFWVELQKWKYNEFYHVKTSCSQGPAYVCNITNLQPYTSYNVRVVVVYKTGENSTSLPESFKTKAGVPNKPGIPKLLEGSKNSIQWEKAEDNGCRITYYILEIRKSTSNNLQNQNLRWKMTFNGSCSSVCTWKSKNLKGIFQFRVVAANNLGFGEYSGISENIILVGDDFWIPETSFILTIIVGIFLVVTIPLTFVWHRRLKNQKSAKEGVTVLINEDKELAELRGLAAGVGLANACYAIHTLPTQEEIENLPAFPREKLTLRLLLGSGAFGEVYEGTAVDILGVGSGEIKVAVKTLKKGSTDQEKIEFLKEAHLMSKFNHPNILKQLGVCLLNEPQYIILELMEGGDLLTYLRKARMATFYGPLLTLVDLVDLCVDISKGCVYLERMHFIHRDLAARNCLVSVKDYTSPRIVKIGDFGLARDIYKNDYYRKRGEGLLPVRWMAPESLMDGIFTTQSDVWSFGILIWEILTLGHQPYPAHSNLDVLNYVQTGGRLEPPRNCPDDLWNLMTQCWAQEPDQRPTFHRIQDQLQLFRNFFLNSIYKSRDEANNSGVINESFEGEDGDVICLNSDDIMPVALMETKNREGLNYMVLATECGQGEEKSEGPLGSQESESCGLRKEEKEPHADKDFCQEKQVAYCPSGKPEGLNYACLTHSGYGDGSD
T25 sequence (P22612 whole entry): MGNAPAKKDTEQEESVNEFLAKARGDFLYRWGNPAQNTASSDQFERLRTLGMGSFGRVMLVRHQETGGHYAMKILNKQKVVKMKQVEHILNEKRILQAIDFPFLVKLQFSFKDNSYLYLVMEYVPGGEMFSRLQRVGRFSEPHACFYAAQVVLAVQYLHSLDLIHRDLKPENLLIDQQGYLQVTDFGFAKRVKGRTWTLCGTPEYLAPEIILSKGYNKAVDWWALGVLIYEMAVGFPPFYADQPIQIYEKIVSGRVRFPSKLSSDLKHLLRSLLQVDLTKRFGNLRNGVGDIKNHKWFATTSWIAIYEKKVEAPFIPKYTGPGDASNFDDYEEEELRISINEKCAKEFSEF
T4 sequence (P08631 whole entry): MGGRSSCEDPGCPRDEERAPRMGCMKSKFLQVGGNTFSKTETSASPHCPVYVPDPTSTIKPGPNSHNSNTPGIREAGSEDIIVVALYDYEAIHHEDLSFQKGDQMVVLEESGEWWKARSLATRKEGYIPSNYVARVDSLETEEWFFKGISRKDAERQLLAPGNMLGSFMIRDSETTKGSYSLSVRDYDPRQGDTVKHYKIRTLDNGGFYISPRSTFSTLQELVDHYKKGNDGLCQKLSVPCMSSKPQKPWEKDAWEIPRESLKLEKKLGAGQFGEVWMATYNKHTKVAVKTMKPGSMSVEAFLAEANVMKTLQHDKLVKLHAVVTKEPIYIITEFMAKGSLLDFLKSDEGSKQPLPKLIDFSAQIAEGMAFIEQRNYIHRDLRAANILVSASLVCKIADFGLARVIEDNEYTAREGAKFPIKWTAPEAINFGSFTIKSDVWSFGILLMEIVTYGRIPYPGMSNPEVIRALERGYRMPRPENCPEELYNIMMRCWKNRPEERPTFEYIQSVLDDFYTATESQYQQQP
T1 sequence (Q9Y463 whole entry): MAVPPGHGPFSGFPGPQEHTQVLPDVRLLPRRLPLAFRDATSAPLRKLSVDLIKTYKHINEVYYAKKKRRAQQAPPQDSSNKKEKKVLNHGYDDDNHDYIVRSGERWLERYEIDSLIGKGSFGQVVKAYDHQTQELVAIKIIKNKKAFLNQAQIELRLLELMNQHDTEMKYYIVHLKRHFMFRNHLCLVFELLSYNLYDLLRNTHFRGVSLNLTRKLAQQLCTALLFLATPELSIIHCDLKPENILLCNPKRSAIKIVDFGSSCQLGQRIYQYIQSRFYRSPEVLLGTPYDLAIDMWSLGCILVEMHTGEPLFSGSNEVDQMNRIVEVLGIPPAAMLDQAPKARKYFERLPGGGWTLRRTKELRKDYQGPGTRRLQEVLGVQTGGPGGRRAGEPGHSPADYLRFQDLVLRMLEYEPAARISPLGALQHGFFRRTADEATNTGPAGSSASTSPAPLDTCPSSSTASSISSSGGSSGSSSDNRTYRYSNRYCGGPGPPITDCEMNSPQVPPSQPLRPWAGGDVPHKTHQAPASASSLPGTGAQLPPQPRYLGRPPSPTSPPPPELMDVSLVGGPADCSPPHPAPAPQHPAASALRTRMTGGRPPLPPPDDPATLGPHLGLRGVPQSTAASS

O=C(O)c1cc(C(F)(F)F)ccc1NCCc1c[nH]c2cc(Br)ccc12 [Compound 5, 2-((2-(6-Bromo-1H-indol-3-yl)ethyl)amino)−5-(trifluoromethyl)benzoic Acid]
activity at 10 µM [1]: 64.8 ± 1.1% | activity at 10 µM [2]: 93.7 ± 0.9% | activity at 10 µM [3]: 94.7 ± 1.4% | activity at 10 µM [4]: 86.2 ± 0.4% | activity at 10 µM [5]: 124% | activity at 10 µM [6]: 94.4 ± 0.5% | activity at 10 µM [7]: 117 ± 3.3% | activity at 10 µM [8]: 97 ± 1% | activity at 10 µM [9]: 118 ± 3.4% | activity at 10 µM [10]: 87.7 ± 0.4% | activity at 10 µM [11]: 104.3 ± 0.7% | activity at 10 µM [12]: 96.5 ± 0.4% | activity at 10 µM [13]: 93.7 ± 1.8% | activity at 10 µM [14]: 80.4 ± 1.1% | activity at 10 µM [15]: 83.1 ± 2.8% | activity at 10 µM [16]: 71.1 ± 3.8% | activity at 10 µM [17]: 101.3 ± 0.5% | activity at 10 µM [18]: 110.3 ± 0.7% | activity at 10 µM [19]: 63.4 ± 6.7% | activity at 10 µM [20]: 86.4 ± 1.8% | activity at 10 µM [21]: 84.2 ± 0.1% | activity at 10 µM [22]: 87 ± 2.6% | activity at 10 µM [23]: 70.7 ± 0.3% | activity at 10 µM [24]: 145 ± 0.9% | activity at 10 µM [25]: 76.2 ± 2.6% | activity at 10 µM [26]: 98 ± 1.7% | activity at 10 µM ([27]; CDK5/P25): 48.6 ± 1.3% | activity at 10 µM ([27]; CDK5/P35): 88.8 ± 0.3% | activity at 10 µM [28]: 83.3 ± 1.5% | activity at 10 µM [29]: 95.1 ± 0.2% | activity at 10 µM [30]: 83.2 ± 1.4% | activity at 10 µM [31]: 102 ± 3.7% | activity at 10 µM [32]: 92.9 ± 2.5% | activity at 10 µM [33]: 101.8 ± 0.4% | activity at 10 µM [34]: 86.3 ± 2.3% | activity at 10 µM [35]: 84 ± 0.9% | activity at 10 µM [36]: 89.8% | activity at 10 µM [37]: 88.9 ± 1%
